Source: publication PMC9727064, “Performance assessment and economic analysis of a human Liver-Chip for predictive toxicology” (Communications Medicine, 2022)
Where two headings read alike, the source gives them in different places.

Legend:
human Liver-Chip = experiment: Liver-Chip DILI prediction: minimum toxic concentration and margin of safety (MOS)-like figure; details: for Chip MOS both donors / Chip MOS donor 1 / Chip MOS donor 2: free IC50 concentration in the assay divided by total concentration of drug in human plasma at Cmax;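 for Chip MOS both donors: Toxic concentration is the lowest across albumin IC50 and ALT and morphology endpoints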;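 for Chip MOS donor 1: Toxic concentration is the lowest across albumin IC50 and ALT and morphology endpoints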;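 for Chip MOS donor 2: Toxic concentration is the lowest across albumin IC50 and ALT and morphology endpoints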
Source text: Because the fundamental principles of drug action dictate that free (unbound) drug concentrations drive drug effects, we explored an alternative methodology for calculating the MOS-like values by accounting for protein binding using a previously reported approach. Accordingly, we reanalyzed the findings for the 27 drugs in our study by accounting for protein binding.

[1] = test system: clinical drug-induced liver injury; details: clinical DILI severity category 1 to 5; cited from earlier work
[2] = test system: human Liver-Chip (primary human hepatocytes); experiment: Liver-Chip albumin production in top channel effluent (ELISA); type: cell-based; details: concentration causing a 50% reduction in albumin production
Source text: Cycles 1 to 4 tested 6–8 concentrations in duplicate for each of 10–13 drugs. To determine which sampling strategy was optimal for cycles 1 to 4 (16 doses × 1 replicate, 8 × 2, 5 × 3, or 4 × 4), we generated three different “dose-response” synthetic datasets, each distorted by different noise levels (low, medium, or high). For each of these datasets, we performed curve-fitting analyses and calculated the Root Mean Square Error between the “true” and estimated IC50 parameter. […] Some drugs were also repeated across cycles (on different donors or at different concentrations) to ensure experimental robustness. However, to replicate a more typical study design likely to be carried out by scientists in the pharmaceutical industry, we created cycle 5 with 6 drugs, where each was tested in 4 concentrations in triplicate. For each cycle, chips were dosed with drug over 8 days (referred to as Day 0 through Day 7).
The drug dosing concentrations were determined from the unbound human Cmax of each drug. First, the expected fraction of drug unbound in media with 2% FBS was extrapolated from plasma binding data for each drug. Dosing concentrations were then back calculated such that the unbound fraction in media would reflect relevant multiples of unbound human Cmax (Supplementary Data 1).
On the first dosing day (Day 0), all chips were imaged using the ECHO microscope. Five hundred microliters of effluent was collected from all four reservoirs of the pod and placed in a labeled 96-well plate. After collection, all the remaining media was carefully aspirated before dosing with 3.8 mL of corresponding dosing solution. Dosing occurred on study days 0, 2, and 4 for chips flowing at 30 µL/h, and on days 0, 1, 2, 3, 4, 5, and 6 for chips flowing at 150 µL/h. Effluent collection occurred on days 1, 3, and 7.
Top channel outlet effluents were analyzed to quantify albumin and alanine transaminase (ALT) levels on days 1, 3, and 7 using sandwich ELISA kits (Abcam, Albumin ab179887, ALT ab234578) according to vendor-provided protocols. Frozen (−80 °C) effluent samples were thawed overnight at 4 °C prior to assay. The Hamilton Vantage liquid handling platform was used to manage effluent dilutions (1:500 for albumin, neat for ALT), preparation of standard curves, and addition of antibody cocktail. Absorbance at 450 nm was measured using the SynergyNeo Microplate Reader (BioTek).
All statistical analyses were conducted in R[21] (version 4.1.2) and figures were produced using the R package ggplot2[22] (version 3.3.5). The dose-response analysis (Fig. 4) was carried out using the popular drc R package developed by Ritz et al.[23] using the generalized log-logistic dose-response model. The error bars in Figs. 3 and 4, correspond to the standard errors of the mean. The circles in Fig. 3 correspond to the samples used to calculate the corresponding statistics. The analysis of significance in Fig. 3 was performed using paired t-test across different days (same donor) and unpaired t-test across different donors (same day). In Fig. 3 the number of samples used were n = 3 for donor two, and n = 4 for donor three. For both donors, the number of the freshly thawed hepatocyte samples used to estimate the corresponding log2(Fold Change) were n = 4. Finally, the analysis of significance in Fig. 3 was performed using paired t-test.

[3] = human, total plasma Cmax, cited from earlier work
[4] = test system: 3D spheroid cultures of primary human hepatocytes; details: cited from earlier work; for Spheroid MOS: 3D hepatic spheroids, previously published data; for Spheroid false negative: Yes/No, also No for drugs not tested in spheroid
[5] = test system: human Liver-Chip (hepatocytes and non-parenchymal cells)
Experimental: At least four to six brightfield images were acquired per chip for morphology analysis. […] Brightfield images were acquired across three fields of view on days 1, 3, and 7 for each cycle. Cytotoxicity classification was performed while acquiring images for both NPCs and hepatocytes. Images were then scored zero to four by blinded individuals (n = 2) based on severity of agglomeration of cell debris for both channels. The scoring matrix and representative images have been included in the supplement (Supplementary Fig. 1).
Hepatocyte layer on Chips
Non-parenchymal cell layer on Chips
Supplementary Figure 1. (a) Representative brightfield images to depict the cellular morphology score in the top channel of the Liver-Chip which contains hepatocytes. A score of 0 represents no hepatotoxicity detected, which is defined by 95-100% healthy hepatocyte morphology, hexagonal shape containing binucleated cells, clear cell cytoplasm, distinctive cell junctions and less than 5% dead cells. A score of 1 […]
cells. A score of 2 represents mild hepatotoxicity with > 70% monolayer of hepatocytes visible, evidence that cells have begun to lose their distinct cell junctions, many cells contain a granulated cytoplasm but < 30% are dead cells. A score of 3 represents moderate hepatotoxicity with severe granulation of cytoplasm and most of the cells have lost their junctions. Approximately 50% of the cells are considered dead. A score of 4 represents severe hepatotoxicity with agglomeration of cell debris and > 50% of the cells are considered dead. The pores on the membrane become visible as there is no longer a cellular monolayer. (b) Representative brightfield images to depict the cellular morphology score in the bottom channel of the Liver-Chip which contains non-parenchymal cells. A score of 0 represents no cytotoxicity detected, with an intact monolayer and <1% of the cells are dead. A score of 1 represents at least 90% of the monolayer is present and there are <10% dead cells. A score of 2 represents mild cytotoxicity with > 80% of the monolayer present and < 20% are dead cells. A score of 3 represents moderate cytotoxicity with > 50% of the monolayer present and < 50% are dead cells. A score of 4 represents severe cytotoxicity with > 50% of the cells are considered dead. (bar, 50 μm). […]

[6] = lowest concentration causing an increase in cellular morphology score, donor 1
[7] = lowest concentration causing an increase in cellular morphology score, donor 2
[8] = lowest concentration causing an increase in cellular morphology score, donor 3

Row | SMILES | Chip MOS both donors (human Liver-Chip) | Chip MOS donor 1 (human Liver-Chip) | Chip MOS donor 2 (human Liver-Chip) | Garside DILI rank [1] | Albumin IC50 Donor 1 [2] | Albumin IC50 Donor 2 [2] | Albumin IC50 Donor 3 [2] | Spheroid MOS [4] | Spheroid false negative [4] | Morphology Donor 1 [5, 6] | Morphology Donor 1 ([5]; human) | Morphology Donor 2 ([5]; human) | also measured
1 | COC(c1ccccc1)(c1ccccc1)[C@H](Oc1nc(C)cc(C)n1)C(=O)O [Ambrisentan] | >10 | >3 | >10 | 5 | >300 multiples of the unbound human Cmax | >1000 multiples of the unbound human Cmax | >300 multiples of the unbound human Cmax | >127 | No | >300 multiples of the unbound human Cmax | – | – | Human Cmax Total ([3]; ref Proctor, W.R. et al. (29)): 790 nM; Morphology Donor 2 [5, 7]: >1000 multiples of the unbound human Cmax; Morphology Donor 3 [5, 8]: >300 multiples of the unbound human Cmax
2 | CCN(CC)C(=O)/C(C#N)=C/c1cc(O)c(O)c([N+](=O)[O-])c1 [Entacapone] | – | >6 | – | 4 | >300 multiples of the unbound human Cmax | – | – | 46.5 | No | >300 multiples of the unbound human Cmax | – | – | Human Cmax Total ([3]; ref Lombardo, F., Berellini, G. & Obach, R. S. (70)): 3300 nM
3 | O=c1[nH]c(=O)n([C@@H]2O[C@H](CO)[C@@H](O)[C@@H]2F)cc1I [Fialuridine] | 0.1 | 0.1 | 2.8 | 1 | <0.1 multiples of the unbound human Cmax | <1 multiples of the unbound human Cmax | – | 12.3 | No | – | >300 multiples of the unbound human Cmax | >300 multiples of the unbound human Cmax | Human Cmax Total ([3]; ref Vorrink, S. U., Zhou, Y., Ingelman- Sundberg, M. & Lauschke, V.M. (30)): 640 nM
4 | C[C@H]1COc2c(N3CCN(C)CC3)c(F)cc3c(=O)c(C(=O)O)cn1c23 [Levofloxacin] | >33.7 | >11.3 | >33.7 | – | >15 multiples of the unbound human Cmax | >45 multiples of the unbound human Cmax | >45 multiples of the unbound human Cmax | – | Yes | – | >15 multiples of the unbound human Cmax | >45 multiples of the unbound human Cmax | Liver-Chip toxicity determination, MOS-like figure against threshold value of 50 (human Liver-Chip; not corrected for protein binding, donors one and two): not detected; Human Cmax Total ([3]; ref Xu, J. J. et al. (36)): 15800 nM; Toxicity detection in 3D hepatic spheroids ([4]; threshold 50): not detected as toxic drugs in spheroids; Morphology Donor 3 ([5]; human): >45 multiples of the unbound human Cmax
5 | CCc1nn(CCCN2CCN(c3cccc(Cl)c3)CC2)c(=O)n1CCOc1ccccc1 [Nefazodone] | – | 1.4 | – | 1 | 140 multiples of the unbound human Cmax | – | – | 6.8 | No | – | 300 multiples of the unbound human Cmax | – | –
6 | Cc1cc2c(cc1CC(=O)c1sccc1S(=O)(=O)Nc1onc(C)c1Cl)OCO2 [Sitaxsentan] | 0.04 | 0.04 | 1.6 | 1 | 4.4 multiples of the unbound human Cmax | 164 multiples of the unbound human Cmax | >100 multiples of the unbound human Cmax | 8.7 | No | 100 multiples of the unbound human Cmax | – | – | Morphology Donor 2 [5, 7]: 100 multiples of the unbound human Cmax; Morphology Donor 3 [5, 8]: 100 multiples of the unbound human Cmax
7 | N[C@@H]1[C@H]2CN(c3nc4c(cc3F)c(=O)c(C(=O)O)cn4-c3ccc(F)cc3F)C[C@@H]12 [Trovafloxacin] | – | – | – | – | 82 multiples of the unbound human Cmax | 78 multiples of the unbound human Cmax | 31 multiples of the unbound human Cmax | – | – | – | 100 multiples of the unbound human Cmax | 100 multiples of the unbound human Cmax | Morphology Donor 3 ([5]; human): 30 multiples of the unbound human Cmax
